Laboratory results taken from US20110038897A1, “ORAL CONTROLLED RELEASE FORMULATIONS” (priority 1999, published 2011).

Assay: Biopharmaceutical properties of rivastigmine in humans
Assay type: in vivo

With CCN(C)C(=O)Oc1cccc([C@H](C)N(C)C)c1 [Rivastigmine] the absorption was “rapidly and completely absorbed” and the metabolism (esterases, e.g., acetyl and butyryl cholinesterase) was “metabolised mainly through hydrolysis by esterases”.
